# Values of other authors as cited in patent publication US20080090885A1 (priority 2006, published 2008).
# Assays:
# [1] = for half-life: in vivo
# [2] = target: T1, AT1 receptor (Homo sapiens, UniProt P30556)
# T1 sequence (P30556 1-359): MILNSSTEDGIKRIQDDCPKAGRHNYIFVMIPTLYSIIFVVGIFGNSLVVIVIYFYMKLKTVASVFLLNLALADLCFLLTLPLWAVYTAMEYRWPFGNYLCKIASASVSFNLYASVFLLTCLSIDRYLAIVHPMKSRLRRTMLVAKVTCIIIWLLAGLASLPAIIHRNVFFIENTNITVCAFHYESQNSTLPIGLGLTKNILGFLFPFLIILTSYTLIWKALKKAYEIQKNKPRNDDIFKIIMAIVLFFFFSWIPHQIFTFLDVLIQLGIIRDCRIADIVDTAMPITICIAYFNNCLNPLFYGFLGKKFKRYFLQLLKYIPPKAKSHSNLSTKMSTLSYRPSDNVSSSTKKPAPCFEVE
half-life [1],oral bioavailability ([1]; oral),peak plasma levels (time to peak) ([1]; oral),SMILES,type of AT1 receptor antagonism [2]
about 2 hours,about 33%,1 h,CCCCc1nc(Cl)c(CO)n1Cc1ccc(-c2ccccc2-c2nn[nH]n2)cc1 [Losartan],"potent, competitive AT1 receptor antagonist"
6 to 9 h,–,–,"CCCCc1nc(Cl)c(C(=O)O)n1Cc1ccc(-c2ccccc2-c2nn[nH]n2)cc1 [EXP-3174, losartan 5-carboxylic acid]",non-competitive AT1 receptor antagonist
